From ChEMBL document CHEMBL5029170, “Discovery of novel triazole compounds as selective IL-1β releasement inhibitors” (Bioorg Med Chem Lett, 2021)
Calls of active or inactive are those of the source. The rule behind the calls is not given here.

test system: not listed separately; assay: Selectivity index, ratio of IC50 for antiinflammatory activity in mouse BMDM cells assessed as inhibition of TNF-alpha production to IC50 for antiinflammatory activity in mouse BMDM cells assessed as inhibition of IL1-beta production; format: functional; conditions: not given

SMILES | Ratio IC50
CCC(CC)C(=O)Nc1c(C(N)=O)nnn1Cc1cc(Cl)c(C(=O)c2ccc(Cl)cc2)c(Cl)c1 | >12.37
CNc1c(C(N)=O)nnn1Cc1cc(Cl)c(C(=O)c2ccc(Cl)cc2)c(Cl)c1 | >18.22
CCCC(=O)Nc1c(C(N)=O)nnn1Cc1cc(Cl)c(C(=O)c2ccc(Cl)cc2)c(Cl)c1 | 2.25
NC(=O)c1nnn(Cc2cc(Cl)c(C(=O)c3ccc(Cl)cc3)c(Cl)c2)c1NC(=O)CCBr | 1.96

target: NACHT, LRR and PYD domains-containing protein 3 (Mus musculus) (UniProt Q8R4B8); assay: Inhibition of NLRP3 inflammasome activation in LPS-primed immortalized mouse BMDM cells assessed as effect on ATP-induced pro-IL-1beta level in cell lysate at 5 to 20 uM by western blot analysis; format: subcellular; conditions: dose 5-20 µM
Sequence (Q8R4B8 whole entry, the tested form may be a part): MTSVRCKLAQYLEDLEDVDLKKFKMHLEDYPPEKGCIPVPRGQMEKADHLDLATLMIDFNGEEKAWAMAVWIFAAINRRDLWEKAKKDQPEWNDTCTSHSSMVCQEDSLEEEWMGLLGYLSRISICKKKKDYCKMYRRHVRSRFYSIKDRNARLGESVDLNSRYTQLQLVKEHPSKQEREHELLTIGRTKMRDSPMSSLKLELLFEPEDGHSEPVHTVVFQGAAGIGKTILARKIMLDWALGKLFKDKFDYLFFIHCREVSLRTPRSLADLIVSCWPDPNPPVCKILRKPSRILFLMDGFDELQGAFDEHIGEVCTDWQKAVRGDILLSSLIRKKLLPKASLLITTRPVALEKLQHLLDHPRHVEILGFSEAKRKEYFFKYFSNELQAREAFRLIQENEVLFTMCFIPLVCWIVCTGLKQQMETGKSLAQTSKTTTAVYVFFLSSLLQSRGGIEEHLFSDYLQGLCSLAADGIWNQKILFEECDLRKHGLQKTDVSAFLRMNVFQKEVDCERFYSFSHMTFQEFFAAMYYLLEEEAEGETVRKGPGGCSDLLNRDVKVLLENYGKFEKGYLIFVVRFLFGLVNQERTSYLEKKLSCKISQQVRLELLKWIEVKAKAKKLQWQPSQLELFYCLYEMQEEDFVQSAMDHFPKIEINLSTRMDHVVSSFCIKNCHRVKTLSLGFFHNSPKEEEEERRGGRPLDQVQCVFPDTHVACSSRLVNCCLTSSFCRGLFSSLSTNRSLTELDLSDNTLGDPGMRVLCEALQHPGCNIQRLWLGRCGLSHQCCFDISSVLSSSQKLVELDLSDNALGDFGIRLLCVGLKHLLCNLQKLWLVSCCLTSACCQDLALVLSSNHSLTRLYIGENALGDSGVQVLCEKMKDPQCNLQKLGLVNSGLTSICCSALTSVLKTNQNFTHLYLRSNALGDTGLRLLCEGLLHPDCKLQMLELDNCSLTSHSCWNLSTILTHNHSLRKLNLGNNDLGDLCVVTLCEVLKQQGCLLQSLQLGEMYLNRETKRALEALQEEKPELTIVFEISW

SMILES | inhibition
CNc1c(C(N)=O)nnn1Cc1cc(Cl)c(C(=O)c2ccc(Cl)cc2)c(Cl)c1 | inactive

target: NACHT, LRR and PYD domains-containing protein 3 (Mus musculus) (UniProt Q8R4B8); assay: Inhibition of NLRP3 inflammasome activation in LPS-primed immortalized mouse BMDM cells assessed as reduction in ATP-induced cleaved caspase-1 expression in supernatant at 5 to 20 uM by western blot analysis; format: cell-based; conditions: dose 5-20 µM

SMILES | inhibition
CNc1c(C(N)=O)nnn1Cc1cc(Cl)c(C(=O)c2ccc(Cl)cc2)c(Cl)c1 | Active

test system: not listed separately; assay: Antiinflammatory activity in mouse BMDM cells assessed as inhibition of IL1-beta production; format: functional, cell-based; conditions: not given

SMILES | IC50
CCC(CC)C(=O)Nc1c(C(N)=O)nnn1Cc1cc(Cl)c(C(=O)c2ccc(Cl)cc2)c(Cl)c1 | 8.08 µM
CNc1c(C(N)=O)nnn1Cc1cc(Cl)c(C(=O)c2ccc(Cl)cc2)c(Cl)c1 | 5.49 µM
CCCC(=O)Nc1c(C(N)=O)nnn1Cc1cc(Cl)c(C(=O)c2ccc(Cl)cc2)c(Cl)c1 | 11.9 µM
NC(=O)c1nnn(Cc2cc(Cl)c(C(=O)c3ccc(Cl)cc3)c(Cl)c2)c1NC(=O)CCBr | 4.97 µM

target: NACHT, LRR and PYD domains-containing protein 3 (Mus musculus) (UniProt Q8R4B8); assay: Inhibition of NLRP3 inflammasome activation in LPS-primed mouse BMDM cells assessed as inhibition of LPS/ATP induced IL-1beta release by ELISA; format: cell-based; conditions: not given

SMILES | inhibition
CNc1c(C(N)=O)nnn1Cc1cc(Cl)c(C(=O)c2ccc(Cl)cc2)c(Cl)c1 | Dose-Dependent Effect

target: NACHT, LRR and PYD domains-containing protein 3 (Mus musculus) (UniProt Q8R4B8); assay: Inhibition of NLRP3 inflammasome activation in LPS-primed immortalized mouse BMDM cells assessed as reduction in ATP-induced mature IL-1beta expression in supernatant at 5 to 20 uM by western blot analysis; format: cell-based; conditions: dose 5-20 µM

SMILES | inhibition
CNc1c(C(N)=O)nnn1Cc1cc(Cl)c(C(=O)c2ccc(Cl)cc2)c(Cl)c1 | Active

test system: not listed separately; assay: Selectivity index, ratio of antiinflammatory activity in mouse BMDM cells assessed as inhibition of TNF-alpha production to antiinflammatory activity in mouse BMDM cells assessed as inhibition of IL1-beta production; format: functional; conditions: not given

SMILES | Selectivity Index
CNC(=O)c1nnn(Cc2cc(Cl)c(C(=O)c3ccc(Cl)cc3)c(Cl)c2)c1N | 1.26
CN(C)c1c(C(N)=O)nnn1Cc1cc(Cl)c(C(=O)c2ccc(Cl)cc2)c(Cl)c1 | 0.87
NC(=O)c1nnn(Cc2cc(Cl)c(C(=O)c3ccc(Cl)cc3)c(Cl)c2)c1NC(=O)c1ccccc1 | 0.53
NC(=O)c1cn(Cc2cc(Cl)c(C(=O)c3ccc(Cl)cc3)c(Cl)c2)nn1 | 1.68
CCC(CC)C(=O)Nc1c(C(N)=O)nnn1Cc1cc(Cl)c(C(=O)c2ccc(Cl)cc2)c(Cl)c1 | 13.43
CNc1c(C(N)=O)nnn1Cc1cc(Cl)c(C(=O)c2ccc(Cl)cc2)c(Cl)c1 | 3.71
Nc1c(C(=O)N2CCCCC2)nnn1Cc1cc(Cl)c(C(=O)c2ccc(Cl)cc2)c(Cl)c1 | 0.51
NC(=O)c1nnn(Cc2cc(Cl)c(C(=O)c3ccc(Cl)cc3)c(Cl)c2)c1N [CARBOXYAMIDOTRIAZOLE] | 0.82
CCNC(=O)c1nnn(Cc2cc(Cl)c(C(=O)c3ccc(Cl)cc3)c(Cl)c2)c1N | 0.71
CCNc1c(C(N)=O)nnn1Cc1cc(Cl)c(C(=O)c2ccc(Cl)cc2)c(Cl)c1 | 1
Nc1c(C(=O)NCCO)nnn1Cc1cc(Cl)c(C(=O)c2ccc(Cl)cc2)c(Cl)c1 | 4.85
Nc1c(C(=O)NCc2ccccc2)nnn1Cc1cc(Cl)c(C(=O)c2ccc(Cl)cc2)c(Cl)c1 | 2.8
CC(C)C(=O)Nc1c(C(N)=O)nnn1Cc1cc(Cl)c(C(=O)c2ccc(Cl)cc2)c(Cl)c1 | 3.88
Nc1c(C(=O)N2CCCC2)nnn1Cc1cc(Cl)c(C(=O)c2ccc(Cl)cc2)c(Cl)c1 | 0.65
N#Cc1nnn(Cc2cc(Cl)c(C(=O)c3ccc(Cl)cc3)c(Cl)c2)c1N | 0.78
CC(C)(C)C(=O)Nc1c(C(N)=O)nnn1Cc1cc(Cl)c(C(=O)c2ccc(Cl)cc2)c(Cl)c1 | 0.74
CCCC(=O)Nc1c(C(N)=O)nnn1Cc1cc(Cl)c(C(=O)c2ccc(Cl)cc2)c(Cl)c1 | 1.56
NC(=O)c1nnn(Cc2cc(Cl)c(C(=O)c3ccc(Cl)cc3)c(Cl)c2)c1NC(=O)CCBr | 1.07

test system: not listed separately; assay: Antiinflammatory activity in mouse BMDM cells assessed as inhibition of TNF-alpha production; format: functional, cell-based; conditions: not given

SMILES | IC50
CCC(CC)C(=O)Nc1c(C(N)=O)nnn1Cc1cc(Cl)c(C(=O)c2ccc(Cl)cc2)c(Cl)c1 | > 100 µM
CNc1c(C(N)=O)nnn1Cc1cc(Cl)c(C(=O)c2ccc(Cl)cc2)c(Cl)c1 | > 100 µM
CCCC(=O)Nc1c(C(N)=O)nnn1Cc1cc(Cl)c(C(=O)c2ccc(Cl)cc2)c(Cl)c1 | 26.8 µM
NC(=O)c1nnn(Cc2cc(Cl)c(C(=O)c3ccc(Cl)cc3)c(Cl)c2)c1NC(=O)CCBr | 9.77 µM

test system: not listed separately; assay: Antiinflammatory activity in mouse BMDM cells assessed as inhibition of TNF-alpha production relative to control; format: functional; conditions: not given

SMILES | inhibition (INH)
CNC(=O)c1nnn(Cc2cc(Cl)c(C(=O)c3ccc(Cl)cc3)c(Cl)c2)c1N | 46.35%
CN(C)c1c(C(N)=O)nnn1Cc1cc(Cl)c(C(=O)c2ccc(Cl)cc2)c(Cl)c1 | 45.89%
NC(=O)c1nnn(Cc2cc(Cl)c(C(=O)c3ccc(Cl)cc3)c(Cl)c2)c1NC(=O)c1ccccc1 | 86.58%
NC(=O)c1cn(Cc2cc(Cl)c(C(=O)c3ccc(Cl)cc3)c(Cl)c2)nn1 | 30.18%
CCC(CC)C(=O)Nc1c(C(N)=O)nnn1Cc1cc(Cl)c(C(=O)c2ccc(Cl)cc2)c(Cl)c1 | 5.73%
CNc1c(C(N)=O)nnn1Cc1cc(Cl)c(C(=O)c2ccc(Cl)cc2)c(Cl)c1 | 15.53%
Nc1c(C(=O)N2CCCCC2)nnn1Cc1cc(Cl)c(C(=O)c2ccc(Cl)cc2)c(Cl)c1 | 52.43%
NC(=O)c1nnn(Cc2cc(Cl)c(C(=O)c3ccc(Cl)cc3)c(Cl)c2)c1N [CARBOXYAMIDOTRIAZOLE] | 87.54%
CCNC(=O)c1nnn(Cc2cc(Cl)c(C(=O)c3ccc(Cl)cc3)c(Cl)c2)c1N | 75.89%
CCNc1c(C(N)=O)nnn1Cc1cc(Cl)c(C(=O)c2ccc(Cl)cc2)c(Cl)c1 | 57.8%
Nc1c(C(=O)NCCO)nnn1Cc1cc(Cl)c(C(=O)c2ccc(Cl)cc2)c(Cl)c1 | 15.01%
Nc1c(C(=O)NCc2ccccc2)nnn1Cc1cc(Cl)c(C(=O)c2ccc(Cl)cc2)c(Cl)c1 | 7.59%
CC(C)C(=O)Nc1c(C(N)=O)nnn1Cc1cc(Cl)c(C(=O)c2ccc(Cl)cc2)c(Cl)c1 | 7.91%
Nc1c(C(=O)N2CCCC2)nnn1Cc1cc(Cl)c(C(=O)c2ccc(Cl)cc2)c(Cl)c1 | 51.44%
N#Cc1nnn(Cc2cc(Cl)c(C(=O)c3ccc(Cl)cc3)c(Cl)c2)c1N | 82.32%
CC(C)(C)C(=O)Nc1c(C(N)=O)nnn1Cc1cc(Cl)c(C(=O)c2ccc(Cl)cc2)c(Cl)c1 | 92.89%
CCCC(=O)Nc1c(C(N)=O)nnn1Cc1cc(Cl)c(C(=O)c2ccc(Cl)cc2)c(Cl)c1 | 47.9%
NC(=O)c1nnn(Cc2cc(Cl)c(C(=O)c3ccc(Cl)cc3)c(Cl)c2)c1NC(=O)CCBr | 81.52%

target: NACHT, LRR and PYD domains-containing protein 3 (Mus musculus) (UniProt Q8R4B8); assay: Inhibition of NLRP3 inflammasome activation in LPS-primed immortalized mouse BMDM cells assessed as inhibition of LPS/ATP induced IL-1beta release by ELISA; format: cell-based; conditions: not given

SMILES | inhibition
CNc1c(C(N)=O)nnn1Cc1cc(Cl)c(C(=O)c2ccc(Cl)cc2)c(Cl)c1 | Dose-Dependent Effect

test system: not listed separately; assay: Antiinflammatory activity in mouse BMDM cells assessed as inhibition of IL1-beta production relative to control; format: functional; conditions: not given

SMILES | inhibition (INH)
CNC(=O)c1nnn(Cc2cc(Cl)c(C(=O)c3ccc(Cl)cc3)c(Cl)c2)c1N | 58.34%
CN(C)c1c(C(N)=O)nnn1Cc1cc(Cl)c(C(=O)c2ccc(Cl)cc2)c(Cl)c1 | 39.86%
NC(=O)c1nnn(Cc2cc(Cl)c(C(=O)c3ccc(Cl)cc3)c(Cl)c2)c1NC(=O)c1ccccc1 | 46.29%
NC(=O)c1cn(Cc2cc(Cl)c(C(=O)c3ccc(Cl)cc3)c(Cl)c2)nn1 | 50.67%
CCC(CC)C(=O)Nc1c(C(N)=O)nnn1Cc1cc(Cl)c(C(=O)c2ccc(Cl)cc2)c(Cl)c1 | 77.01%
CNc1c(C(N)=O)nnn1Cc1cc(Cl)c(C(=O)c2ccc(Cl)cc2)c(Cl)c1 | 57.66%
Nc1c(C(=O)N2CCCCC2)nnn1Cc1cc(Cl)c(C(=O)c2ccc(Cl)cc2)c(Cl)c1 | 27.12%
NC(=O)c1nnn(Cc2cc(Cl)c(C(=O)c3ccc(Cl)cc3)c(Cl)c2)c1N [CARBOXYAMIDOTRIAZOLE] | 71.94%
CCNC(=O)c1nnn(Cc2cc(Cl)c(C(=O)c3ccc(Cl)cc3)c(Cl)c2)c1N | 53.9%
CCNc1c(C(N)=O)nnn1Cc1cc(Cl)c(C(=O)c2ccc(Cl)cc2)c(Cl)c1 | 57.89%
Nc1c(C(=O)NCCO)nnn1Cc1cc(Cl)c(C(=O)c2ccc(Cl)cc2)c(Cl)c1 | 72.28%
Nc1c(C(=O)NCc2ccccc2)nnn1Cc1cc(Cl)c(C(=O)c2ccc(Cl)cc2)c(Cl)c1 | 21.22%
CC(C)C(=O)Nc1c(C(N)=O)nnn1Cc1cc(Cl)c(C(=O)c2ccc(Cl)cc2)c(Cl)c1 | 30.69%
Nc1c(C(=O)N2CCCC2)nnn1Cc1cc(Cl)c(C(=O)c2ccc(Cl)cc2)c(Cl)c1 | 33.52%
N#Cc1nnn(Cc2cc(Cl)c(C(=O)c3ccc(Cl)cc3)c(Cl)c2)c1N | 64.01%
CC(C)(C)C(=O)Nc1c(C(N)=O)nnn1Cc1cc(Cl)c(C(=O)c2ccc(Cl)cc2)c(Cl)c1 | 68.75%
CCCC(=O)Nc1c(C(N)=O)nnn1Cc1cc(Cl)c(C(=O)c2ccc(Cl)cc2)c(Cl)c1 | 74.89%
NC(=O)c1nnn(Cc2cc(Cl)c(C(=O)c3ccc(Cl)cc3)c(Cl)c2)c1NC(=O)CCBr | 87.06%

target: NACHT, LRR and PYD domains-containing protein 3 (Mus musculus) (UniProt Q8R4B8); assay: Inhibition of NLRP3 inflammasome activation in LPS-primed immortalized mouse BMDM cells assessed as effect on ATP-induced NLRP3 level in cell lysate at 5 to 20 uM by western blot analysis; format: subcellular; conditions: dose 5-20 µM

SMILES | inhibition
CNc1c(C(N)=O)nnn1Cc1cc(Cl)c(C(=O)c2ccc(Cl)cc2)c(Cl)c1 | inactive
